We go through 1 molecule from patent EP4729529A1, “PREPARATION OF PEPTIDE INHIBITOR OF INTERLEUKIN-23 RECEPTOR AND USE THEREOF” (Xizang Haisco Pharmaceutical Co., Ltd., priority 2023, dated 2024).

Positions of bridges follow the written chain, without caps; N, C: chain ends. Non-standard residues stand in square brackets, D forms with d. Residues, ends and D or L forms follow the SMILES beside them. Phe(4-OC2H4NH2,2,3-(CH2)3) = NCCOc1ccc(C[C@H](N)C(=O)O)c2c1CCC2; Trp(7-Me) = Cc1cccc2c(C[C@H](N)C(=O)O)c[nH]c12; 2Nal = N[C@@H](Cc1ccc2ccccc2c1)C(=O)O; 3Pal = N[C@@H](Cc1cccnc1)C(=O)O; Pen = CC(C)(S)[C@H](N)C(=O)O; Thp = NC1(C(=O)O)CCOCC1; Sar = CNCC(=O)O

A short description of series [1]: Test of stability in plasma, monkey. The settings on record: read-out: Residual rate% at 37°C for 6 h. It counts as in vitro ADME. How it is done:
(§1) 5. Test of stability in plasma
(§2) In this experiment, plasmas of five species, including human, monkey, dog, rat, and mouse, were used to evaluate the stability in plasma of Compound 7.
(§3) A plasma sample was prepared at a concentration level of 1000 ng/mL, and dispensed into EP tubes at time points 0 h and 6 h. Acetonitrile solution containing an internal standard was added directly to the 0 h sample; and the 6 h sample was placed at 37°C for the corresponding time, and then added with an acetonitrile solution containing internal standard. The concentration of the test compound in the sample was measured by the LC-MS/MS method, and the residual rate was calculated from the ratio of the peak areas of the test compound to the internal standard in the time point sample and the 0 h sample.
(§4) Experimental results: At the concentration level of 1000 ng/mL under the test conditions, the residual rates of the test Compounds were shown in Table 6 below. Table 6. Residual rate% at 37°C for 6 h

Series [2] is described as follows: Test of stability in gastrointestinal fluid: simulated intestinal fluid (trypsin, pH 6.8). It counts as in vitro ADME. The settings on record: 0.5 mg/ml, 37°C. As for the experimental part: 6. Test of stability in gastrointestinal fluid
1.3. Preparation of 0.1 mol/L NaOH: 0.4 g of NaOH was dissolved in 100 ml of water.
1.4. Preparation of simulated intestinal fluid: 0.68 g of potassium dihydrogen phosphate was dissolved in 50 ml of water, and the pH value was adjusted to 6.8 with 0.1 mol/L sodium hydroxide solution. 1 g of trypsin was dissolved in an appropriate amount of water. After the two solutions were mixed, the mixture was diluted with water to 1000 ml.
About 12.5 mg of the sample was added to a 25 ml volumetric flask and dissolved in the simulated gastric fluid (or simulated intestinal fluid), and the mixture was diluted to the mark.
Instrument model: Agilent 1260 Infinity; mobile phase A: 10 mmol/L K2HPO4, and mobile phase B: acetonitrile; column: Phenomenex Gemini^@ 3 um C18 110Å 150 * 4.6 mm; wavelength: 224 nm; column temperature: 30°C; sample tray temperature: 37°C; injection time: 35 min; injection volume: 10 ul; injection mode: gradient injection; and gradient method. Table 7. Gradient mobile phase
Sampling and testing: Firstly, the blank solution (simulated gastric fluid or simulated intestinal fluid) was tested. Then, the prepared sample (newly prepared for use) was placed in the injection tray for immediate injection. Then, a needle of sample was injected at 4.5 h, 9.5 h, and 18 h, respectively.
Table 8. Stability in gastrointestinal fluid

The nature of series [3]: Test of stability in plasma, mouse. Type of series: in vitro ADME. The settings on record: read-out: Residual rate% at 37°C for 6 h. As for the experimental part: as §1, §2, §3, §4
Series [4] in a line: Test of stability in plasma, human. It counts as in vitro ADME. The settings on record: read-out: Residual rate% at 37°C for 6 h. How it is done:
as §1, §2, §3, §4

A further series addresses T1, IL-23α/IL-12β and IL-23R (Homo sapiens, UniProt Q5VWK5).
T1 construct: purchased ACRO ILR-H82F3 (IL-23R); ILB-H52W5 (IL-23α/IL-12β)
T1 sequence (Q5VWK5 24-353 limits assumed): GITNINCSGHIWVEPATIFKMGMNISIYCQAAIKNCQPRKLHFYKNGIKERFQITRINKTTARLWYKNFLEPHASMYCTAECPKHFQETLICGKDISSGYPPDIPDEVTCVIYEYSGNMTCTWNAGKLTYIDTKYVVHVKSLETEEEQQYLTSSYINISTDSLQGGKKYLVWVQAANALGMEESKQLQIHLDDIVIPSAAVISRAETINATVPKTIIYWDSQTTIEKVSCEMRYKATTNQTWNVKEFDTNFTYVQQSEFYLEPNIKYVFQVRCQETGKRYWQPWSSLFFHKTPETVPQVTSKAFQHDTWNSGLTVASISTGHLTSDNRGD
The series can be described thus: IL-23α/IL-12β and IL-23R binding assay (TR-FRET/HTRF). The settings on record: inhibition of the binding of IL-23α/IL-12β to IL-23R, TR-FRET; both proteins 0.3 nM. Put shortly: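 TR-FRET with IL-23α/IL-12β and IL-23R each at 0.3 nM in PPI buffer; compound preincubated with IL-23α/IL-12β 60 min at 25°C, then IL-23R and Tb/d2 detection reagents added for 60 min. HTRF 665/620 ratio; IC50 by nonlinear regression.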
Background: Time-resolved FRET reads energy transfer from a long-lived donor to a nearby acceptor.

A short description of series [5]: Pharmacokinetic test in mice (intravenous and intragastric, plasma LC-MS/MS). It counts as in vivo. The settings on record: male, mouse, Balb/c mice. As for the experimental part:
4. Pharmacokinetic test in mice
4.1. Experimental animals: Male Balb/c mice (20-25 g, 18 mice/compound) were purchased from Chengdu Dossy Experimental Animals Co., Ltd.
4.2. Experimental design: On the day of the experiment, the Balb/c mice were randomly grouped by body weight. The animals were fasted with water available for 12-14 h one day before the administration, and were fed 4 h after the administration. Table 4. Administration information
Before and after administration, 0.06 mL of blood was taken from the orbit under isoflurane anaesthesia, and placed in an EDTAK2 centrifuge tube. The tube was centrifuged at 5000 rpm at 4°C for 10 min, and plasma was collected. The blood collection time points for the intravenous group and intragastric group were both 0 min, 5 min, 15 min, 30 min, 1 h, 2 h, 4 h, 6 h, 8 h, and 24 h. Before analysis and detection, all samples were stored at -80°C, and the samples were quantitatively analysed by LC-MS/MS. Table 5. Pharmacokinetic parameters of test compounds in mouse plasma

For the molecule `CC(=O)NCCCC[C@@H]1NC(=O)[C@H](Cc2c[nH]c3c(C)cccc23)NC(=O)[C@H]([C@@H](C)O)NC(=O)[C@H](Cc2c[nH]cn2)NC(=O)[C@@H](NC(C)=O)C(C)(C)SSC(C)(C)[C@@H](C(=O)N[C@@H](Cc2ccc(OCCN)c3c2CCC3)C(=O)N[C@@H](Cc2ccc3ccccc3c2)C(=O)NC2(C(=O)N[C@@H](CCC(=O)O)C(=O)N[C@@H](CC(N)=O)C(=O)N[C@@H](Cc3cccnc3)C(=O)N(C)CC(N)=O)CCOCC2)NC1=O` [Compound 7] (Ac-[Pen]HT[Trp(7-Me)]K(Ac)[Pen][Phe(4-OC2H4NH2,2,3-(CH2)3)][2Nal][Thp]EN[3Pal][Sar]-NH2; disulfide 1-6), the remaining at 6 h, 1000 ng/mL in series [1], in series [3] and in series [4] was above 99% each time. Besides, the Peak area% in series [2] (0 h) was 94.095%; in series [2] (4.5 h) it was 93.552%; in series [2] (9.5 h), 93.575%; in series [2] (18 h), 94.831%. The same molecule returned an IC50 on IL-23α/IL-12β and IL-23R of 0.0539 nM. Also, the AUC(0-t) stood at 4720 ± 512 ng·h/mL in series [5] (iv, i.v. (1 mg/kg)) and 227 ± 100 ng·h/mL in series [5] (po, i.g. (10 mg/kg)). The clearance in series [5] (iv, i.v. (1 mg/kg)) was determined as 3.52 ± 0.38 mL/min/kg. Besides, in series [5] (iv, i.v. (1 mg/kg), read-out: Vdss), the Vd stood at 0.261 ± 0.01 L/kg. This molecule had a bioavailability in series [5] (po, i.g. (10 mg/kg)) of 0.482 ± 0.21%.

Broadly, the IC50 is the concentration that gives 50% inhibition. As usually defined, the AUC(0-t) is exposure summed from dosing to a finite time, without extrapolation to infinity. The term clearance denotes the volume of plasma or blood freed of the substance per unit of time. The term bioavailability denotes dose-corrected exposure relative to a reference, in per cent.
